In patent US8299277B2, “Radiation protection drug containing tocopherol or tocotrienol compound ester derivative as active ingredient” (priority 2006, dated 2012):

System: male C3H mice irradiated with X-rays
Experiment: 30-day survival of mice after X-ray irradiation (radiation protection)
Assay type: in vivo
Procedure: Seven to thirteen male C3H mice aged 10 weeks (body weight: 25-28 g) per group were irradiated with X-rays (7.5-8.5 Gy) and their survival rate was determined 30 days after the irradiation. To each of drug-treated groups was intraperitoneally or subcutaneously administered 0.5% methylcellulose solution (0.3 ml) containing d-γ-tocopherol-N,N-dimethylglycine ester hydrochloride in an amount of 10-300 mg/Kg, before or after the irradiation. To a control group was intraperitoneally administered 0.5% methylcellulose solution in a volume of 0.3 ml per mouse.
Eight to eleven male C3H mice aged 10 weeks (body weight: 25-28 g) per group were irradiated with X-rays (7.5 Gy) and their survival rate was measured 30 days after the irradiation. To drug-treated groups was intraperitoneally administered 0.5% methylcellulose solution (0.3 ml) containing d-α-tocopherol-N,N-dimethylglycine ester hydrochloride, d-γ- or d-α-tocotrienol-N,N-dimethylglycine ester hydrochloride, d-γ- or dl-α-tocopherol phosphate disodium salt, or d-γ-tocopherol-N-methyl-L-proline ester hydrochloride, respectively, in an amount of 100 mg/Kg, immediately after the irradiation. To a control group was intraperitoneally administered 0.5% methylcellulose solution in a volume of 0.3 ml per mouse.

[1] = 100 mg/kg i.p., 7.5 Gy X-rays, administered immediately after irradiation, C3H mice (Table 2)

## CC(C)=CCCC(C)=CCCC(C)=CCCC1(C)CCc2cc(OC(=O)CN(C)C)c(C)c(C)c2O1.Cl (stereo not drawn) [d-γ-Tocotrienol-N,N-dimethylglycine ester hydrochloride]
[1]
  Survival rate after 30 days (%): 85%

## Cc1c(C)c2c(c(C)c1OC(=O)CN(C)C)CCC(C)(CCCC(C)CCCC(C)CCCC(C)C)O2.Cl (stereo not drawn) [d-α-tocopherol-N,N-dimethylglycine ester hydrochloride]
[1]
  Survival rate after 30 days (%): 95%

## Cc1c(OC(=O)CN(C)C)cc2c(c1C)OC(C)(CCCC(C)CCCC(C)CCCC(C)C)CC2.Cl (stereo not drawn) [d-γ-tocopherol-N,N-dimethylglycine ester hydrochloride]
10 mg/kg i.p., 7.5 Gy X-rays, administered immediately after irradiation, C3H mice
  Survival rate after 30 days (%): 10%
20 mg/kg i.p., 7.5 Gy X-rays, administered immediately after irradiation, C3H mice
  Survival rate after 30 days (%): 60%
50 mg/kg i.p., 7.5 Gy X-rays, administered immediately after irradiation, C3H mice
  Survival rate after 30 days (%): 85%
100 mg/kg S.C. administration, 7.5 Gy X-rays, administered immediately after irradiation, C3H mice
  Survival rate after 30 days (%): 85%
100 mg/kg i.p., 7.5 Gy X-rays, administered 30 min. before irradiation, C3H mice
  Survival rate after 30 days (%): 60%
100 mg/kg i.p., 7.5 Gy X-rays, administered 1 hr. after irradiation, C3H mice
  Survival rate after 30 days (%): 88%
100 mg/kg i.p., 7.5 Gy X-rays, administered 10 hrs. after irradiation, C3H mice
  Survival rate after 30 days (%): 75%
100 mg/kg i.p., 7.5 Gy X-rays, administered 24 hrs. after irradiation, C3H mice
  Survival rate after 30 days (%): 40%
100 mg/kg i.p., 7.5 Gy X-rays, administered immediately after irradiation, C3H mice (Table 1)
  Survival rate after 30 days (%): 98%
100 mg/kg i.p., 7.5 Gy X-rays, administered immediately before irradiation, C3H mice
  Survival rate after 30 days (%): 80%
100 mg/kg i.p., 8 Gy X-rays, administered immediately after irradiation, C3H mice
  Survival rate after 30 days (%): 78%
100 mg/kg i.p., 8.5 Gy X-rays, administered immediately after irradiation, C3H mice
  Survival rate after 30 days (%): 37%
300 mg/kg i.p., 7.5 Gy X-rays, administered immediately after irradiation, C3H mice
  Survival rate after 30 days (%): 55%

## CC(C)=CCCC(C)=CCCC(C)=CCCC1(C)CCc2c(C)c(OC(=O)CN(C)C)c(C)c(C)c2O1.Cl (stereo not drawn) [d-α-Tocotrienol-N,N-dimethylglycine ester hydrochloride]
[1]
  Survival rate after 30 days (%): 91%

## Cc1c(OC(=O)[C@@H]2CCCN2C)cc2c(c1C)OC(C)(CCCC(C)CCCC(C)CCCC(C)C)CC2.Cl (stereo partly drawn) [d-γ-tocopherol-L-N-methylproline ester hydrochloride]
[1]
  Survival rate after 30 days (%): 90%

## Cc1c(C)c2c(c(C)c1OP(=O)([O-])[O-])CCC(C)(CCCC(C)CCCC(C)CCCC(C)C)O2.[Na+].[Na+] (racemic) [dl-α-Tocopherol phosphate disodium salt]
[1]
  Survival rate after 30 days (%): 40%

## Cc1c(OP(=O)([O-])[O-])cc2c(c1C)OC(C)(CCCC(C)CCCC(C)CCCC(C)C)CC2.[Na+].[Na+] (stereo not drawn) [d-γ-Tocopherol phosphate disodium salt]
[1]
  Survival rate after 30 days (%): 70%
